Results: US20250161238A1, “NMDAR Antagonists Prevent Ageing and Aging-Associated Conditions and Diseases Through Increasing 20S Proteasome Activity” (priority 2022, published 2025)
“Also recorded” adds a separate entry of the source.

Legend:
Ub-YFP = Ub-YFP degredation in Hep3B cells; type: cell-based, human
Protocol: This finding was supported by the following experiments; First, a model was developed to find inhibitor or inhibitors for the ubiquitin dependent degredation in the Hep3B cell line. For this purpose Hep3B cell expressing Ub-YFP genome were prepared. Ub-YFP is a system which was used to detect the ubiquitin dependent proteasome activity (26S). It is also known that Ub-YFP is not affected by the ubiquitin-independent protesome system. In further experiments, we tested molecules which are involved in different parts of the ubiquitination processes including PYR41 (Ubiquitin-activating enzyme (E1) inhibitor), NCC697923 (UBE2N E2 ubiquitin-conjugating enzyme inhibitor), SMER3 (ubiquitin ligase E3 inhibitor), SZL-P1-411 (Skp2 E3 ligase inhibitor), SKPIN C1 (Skp2 E3 ligase inhibitor), P005091 (USP7 inhibitor), Vialin A (USP4 and USP5 inhibitor), Spautin A (USP10 and USP13 inhibitor), ML 323 (USP1-UAF1 inhibitor), IU1 (USP14 inhibitor), and Mg132 (protesome inhibitor) for the inhibition of Ub-YFP degredation. […] MG132 was used as the inhibitor of the protesome activity (FIG. 12A). In the next experiment YFP protein amount was investigated in the presence of ketamin, Pyr41, and ketamin and Pyr41 together by western blot in Hep3B cell.
The Ub-R-YFP open-reading frame was obtained from Ub-R-YFP was a gift from Nico Dantuma (Addgene plasmid #11948). Ub-R-YFP sequence was obtained from the original vector by cutting the plasmid with NheI and NotI enzymes (Thermo Scientific), blunt ended and was cloned into pBSK-clo2D which is cut by EcoRV restriction enzyme (SibEnzyme, E059). Ub-R-YFP was obtained from the pBSK-clo2D vector by cutting with BamHI. pLV-EF1a-IRES-Puro (85132-Addgene) vector was cut by BamHI restriction enzyme and dephospharylated and ligated with Ub-R-YFP. After the orientation construct was determined, pLV-EF1a-IRES-Puro-Ub-R-YFP was reproduced in large volumes using DH5a E. Coli.
Hek293T cells were transfected with the pLV-EF1a-IRES-Puro-Ub-R-YFP and helper vectors psPAX2 and pMD2.G using Calcium Phosphate Mammalian Transfection Kit (631312-Takara bio). After 48 h supernatants containing Ub-R-YFP lentivirus were collected and target cells were infected under the presence of […] polybrene. After 24 hours, the media of the cells were replaced with media containing […] puromycin for 6 days. Then living cells were combined in a pool. Infected clones were maintained in the presence of 250 ng/ml puromycin.

mice with GD symptoms = conditions: inverted screen / hanging wire test; cited from earlier work
[1] = molecular target: T1, acid beta-glucosidase (GCase) (Mus musculus, UniProt P17439); conditions: in vivo; cited from earlier work
T1 construct: host or cells: mice (in vivo), US 2017/0273917 A1 and Klein et al. 2016
T1 sequence (P17439 20-515): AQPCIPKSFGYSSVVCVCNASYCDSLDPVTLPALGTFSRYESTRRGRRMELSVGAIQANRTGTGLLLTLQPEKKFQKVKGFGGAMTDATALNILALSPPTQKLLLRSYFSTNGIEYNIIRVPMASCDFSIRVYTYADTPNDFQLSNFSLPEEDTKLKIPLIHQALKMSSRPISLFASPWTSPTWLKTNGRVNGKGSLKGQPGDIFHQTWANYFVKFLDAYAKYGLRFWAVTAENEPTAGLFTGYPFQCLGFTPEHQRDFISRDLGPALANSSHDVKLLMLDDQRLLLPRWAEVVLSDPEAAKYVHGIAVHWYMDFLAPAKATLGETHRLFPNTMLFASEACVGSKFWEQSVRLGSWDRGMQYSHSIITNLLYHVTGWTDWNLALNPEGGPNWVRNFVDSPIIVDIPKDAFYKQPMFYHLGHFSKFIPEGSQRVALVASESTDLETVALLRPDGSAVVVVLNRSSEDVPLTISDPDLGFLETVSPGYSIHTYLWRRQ

mice = test: Kondziela's inverted screen test in aged mice; type: in vivo; conditions: mice at 22 months
Excerpt: Kondziela's inverted screen test is one of tests which examine the muscle strength using all four limbs. Four limb-hanging test which is the Kondziella's inverted screen test represents a method to assess muscle strength using all four limbs grip and to determine the general condition during time. […] As a result, the test can provide important information about age-related neuromuscular decline.
The experimental protocols were approved by the Ethics Committee of Ankara University, Faculty of Medicine, Medical Sciences Experimental Research and Application Center (Date: Dec. 11, 2019 and Decision number: 2019-22-189). Adult (12-mounts-old) C57BL/6 mice (5 for each group) were used. The mice were housed at the Experimental Animal Research Laboratory of Ankara University Faculty of Medicine. Food and water were given without restriction. The ambient temperature was kept at 21±2° C., and locomotor activity tests were performed at this temperature. The animals were housed in a room with a 12-hour light/dark cycle. The procedures in the study were performed in accordance with the Ankara University Animal Care Committee according to international guidelines. Memantine (Sigma-Aldrich) was administered orally at 3 mg/Kg/per day with drinking water of one-year-old mice. Tests related to locomotor activities of the mice were recorded and available.
Inverted screen test described firstly Kondizela for muscle strength (Kondizela, 1964). The mouse was put on a center of the rectangular mesh screen (52 cm×32 cm) and the screen was rotated 180° over 2 seconds. The screen was held steadily 40-50 cm above a sawdust surface. Holding time were recorded for a maximum of 5 minutes. The inverted screen was scored previously by Deacon (Falling between 1-10 sec=1 Falling between 11-25 seconds=2 Falling between 26-60 seconds=3 Falling between 61-90 seconds=4 Falling after 90 seconds=5) (Deacon, 2013). According to previous studies, parameters such as Total mobility time % (Gleitz et al, 2017), the latency of falling time, and four limbs griping time (Roemers et al, 2019) were analyzed.

SMILES | Ub-YFP degredation (Ub-YFP; Hep3B expressing Ub-YFP) | YFP protein amount (Ub-YFP; Hep3B, western blot) | muscle strength / motor coordination of GD mice (mice with GD symptoms) | Gcase inhibition and level of Gcase substrates GlcCer and GSLs [1] | four fingers grip time (mice) | mobility time (mice) | time in the inverted frame (latency of falling, holding time) (mice)
CNC1(c2ccccc2Cl)CCCCC1=O (stereo not shown) [ketamin, 2-(2-chlorophenyl)-2-(methylamino)-cyclohexanone] | no effect | did not decrease |  |  |  |  | 
CC12CC3CC(C)(C1)CC(N)(C3)C2 [memantine, 3,5-dimethyladamantan-1-amine] |  |  | much better; also recorded: improved significantly; also recorded: increase the muscle strength | no effect | more than two times | more than twice as much | twice as long
